Experimental data reported in patent US12496319B2 (INDUSTRY FOUNDATION OF CHONNAM NATIONAL UNIVERSITY, priority 2020, dated 2025).

Target: T1, NOD2 (Homo sapiens, UniProt Q9HC29)
T1 construct: host or cells: HEK293 / HEK293T cells carrying a NOD2-responsive luciferase reporter
Test: NOD2 activity by luciferase assay in HEK293 cells
Format: cell-based
Conditions: 10 ng/ml MDP control, 24 hours, untreated = 1.00
Method: Existing literature has reported that the protective effect of lactic acid bacteria on inflammatory bowel disease results from the anti-inflammatory effect of NOD2, which is an innate immune receptor protein. […] Specifically, HEK293 cells were treated with 1 MOI of several types of lactic acid bacteria, which had been transduced to generate luciferase by transcription of the luciferase gene through the stimulation of NOD2. For a control with respect to cell activity, HEK293 cells were treated with 10 ng/ml muramyl dipeptide (MDP) capable of stimulating NOD2 and then cultured in a cell incubator for 24 hours. Thereafter, the NOD2 activity was determined by luciferase assay on the luciferase generated from cell rupture. MDP, which is a component of the peptidoglycan constituting the cell wall of bacteria, is a ligand that directly acts on NOD2, and this was used as a control.

T1 sequence (Q9HC29 whole entry): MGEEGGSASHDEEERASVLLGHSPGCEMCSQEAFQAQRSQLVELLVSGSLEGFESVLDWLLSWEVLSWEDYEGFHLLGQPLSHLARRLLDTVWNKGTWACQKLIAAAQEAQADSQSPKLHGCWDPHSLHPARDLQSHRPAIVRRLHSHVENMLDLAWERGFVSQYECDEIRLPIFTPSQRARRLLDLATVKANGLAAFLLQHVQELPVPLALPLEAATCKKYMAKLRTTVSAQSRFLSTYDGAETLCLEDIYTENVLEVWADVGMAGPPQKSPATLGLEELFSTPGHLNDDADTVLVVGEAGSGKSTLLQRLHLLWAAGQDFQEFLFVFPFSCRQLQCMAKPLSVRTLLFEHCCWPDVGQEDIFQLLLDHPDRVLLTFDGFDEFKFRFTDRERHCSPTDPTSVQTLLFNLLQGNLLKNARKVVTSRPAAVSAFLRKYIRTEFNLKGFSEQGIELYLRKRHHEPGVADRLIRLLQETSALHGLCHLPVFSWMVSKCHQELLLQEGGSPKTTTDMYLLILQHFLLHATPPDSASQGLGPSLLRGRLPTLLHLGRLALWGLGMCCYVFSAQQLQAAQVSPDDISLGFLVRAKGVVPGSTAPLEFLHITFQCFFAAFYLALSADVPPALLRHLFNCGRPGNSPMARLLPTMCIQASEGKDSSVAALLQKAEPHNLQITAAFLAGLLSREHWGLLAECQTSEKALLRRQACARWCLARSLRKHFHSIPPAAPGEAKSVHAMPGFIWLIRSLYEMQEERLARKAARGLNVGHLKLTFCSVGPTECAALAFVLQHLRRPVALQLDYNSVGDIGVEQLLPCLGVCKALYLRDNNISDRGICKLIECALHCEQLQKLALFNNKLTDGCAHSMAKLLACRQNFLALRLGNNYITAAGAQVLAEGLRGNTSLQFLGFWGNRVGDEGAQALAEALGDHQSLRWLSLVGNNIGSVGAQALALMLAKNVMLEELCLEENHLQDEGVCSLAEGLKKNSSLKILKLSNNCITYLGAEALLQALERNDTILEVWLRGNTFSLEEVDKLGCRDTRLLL

NOD2 Activity: 40.70
Compound: CC(=O)N[C@H]1C(O)O[C@H](CO)[C@@H](O)[C@@H]1O[C@H](C)C(=O)N[C@@H](C)C(=O)N[C@H](CCC(=O)O)C(N)=O (mixture of isomers) [MDP, muramyl dipeptide]
